How the values were obtained:
purple nutsedge = experiment: Test B pre/postemergence purple nutsedge; type: in vivo, Cyperus rotundus
Method in brief: (§1)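 Response is a visual 0-to-10 score relative to untreated plants, where 0 means no effect and 10 means complete control, taken twelve to sixteen days after application. Treatments went onto soil at planting and onto foliage of 1- to 4-leaf plants, using a surfactant-containing non-phytotoxic solvent.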

bamyardgrass = experiment: Test B flood test barnyardgrass; type: in vivo, Echinochloa crus-galli; details: for Plant response rating, Barnyardgrass: scale 0 to 10, 0 is no effect, 10 is complete control; for Barnyardgrass plant response rating: scale of 0 to 10 where 0 is no effect and 10 is complete control
Method in brief: (§2)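 Each value is a visual injury score relative to controls, with 10 meaning complete control and 0 no effect. Evaluation took place twelve to sixteen days after the 2-leaf-stage plants were treated and kept in the greenhouse.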

pigweed = experiment: Test B pre/postemergence pigweed; type: in vivo, Amaranthus retroflexus
Method in brief: as §1

duck salad = experiment: Test B flood test duck salad; type: in vivo, Heteranthera limosa; details: for Plant response rating, Ducksalad: scale 0 to 10, 0 is no effect, 10 is complete control; for Ducksalad plant response rating: scale of 0 to 10 where 0 is no effect and 10 is complete control
Method in brief: as §2

sugar beet = experiment: Test B pre/postemergence sugar beet; type: in vivo, Beta vulgaris
Method in brief: as §1

blackgrass = experiment: Test B pre/postemergence blackgrass; type: in vivo, Alopecurus myosuroides
Method in brief: as §1

wheat = experiment: Test B pre/postemergence wheat; type: in vivo, Triticum aestivum
Method in brief: as §1

giant foxtail = experiment: Test B pre/postemergence giant foxtail; type: in vivo, Setaria faberii
Method in brief: as §1

surinam grass = experiment: Test B pre/postemergence surinam grass; type: in vivo, Brachiaria decumbens
Method in brief: as §1

cocklebur = experiment: Test B pre/postemergence cocklebur; type: in vivo, Xanthium strumarium
Method in brief: as §1

crabgrass = experiment: Test B pre/postemergence crabgrass; type: in vivo, Digitaria sanguinalis
Method in brief: as §1

bedstraw = experiment: Test B pre/postemergence bedstraw; type: in vivo, Galium aparine; details: Postemergence; for Plant response rating, Bedstraw: scale 0 to 10, 0 is no effect, 10 is complete control; for Bedstraw plant response rating: scale of 0 to 10 where 0 is no effect and 10 is complete control
Method in brief: as §1

morningglory = experiment: Test B pre/postemergence morningglory; type: in vivo, Ipomoea hederacea
Method in brief: as §1

wild oat = experiment: Test B pre/postemergence wild oat; type: in vivo, Avena fatua
Method in brief: as §1

rice = experiment: Test B flood test rice; type: in vivo, Oryza sativa
Method in brief: as §2

velvetleaf = experiment: Test B pre/postemergence velvetleaf; type: in vivo, Abutilon theophrasti
Method in brief: as §1

[1] = Postemergence, Rate 250 g/ha, scale 0 to 10, 0 is no effect, 10 is complete control
[2] = Postemergence, Rate 500 g/ha, scale of 0 to 10 where 0 is no effect and 10 is complete control
[3] = Preemergence, Rate 62 g/ha, scale 0 to 10 (0 no effect, 10 complete control)
[4] = Preemergence, Rate 125 g/ha, scale of 0 to 10 where 0 is no effect and 10 is complete control
[5] = Preemergence, Rate 250 g/ha, scale 0 to 10, 0 is no effect, 10 is complete control
[6] = Preemergence, Rate 500 g/ha, scale 0 to 10, 0 is no effect, 10 is complete control
[7] = Postemergence (flood test), Rate 125 g/ha
[8] = Postemergence section (flood test species), Rate 500 g/ha
[9] = Rate 62 g/ha, Postemergence (flood test species)
[10] = flood test species, listed under Postemergence, Rate 250 g/ha
[11] = Postemergence, Rate 125 g/ha, scale 0 to 10, 0 is no effect, 10 is complete control
[12] = Preemergence, Rate 250 g/ha, scale of 0 to 10 where 0 is no effect and 10 is complete control
[13] = Rate 62 g/ha, Postemergence, scale of 0 to 10 where 0 is no effect and 10 is complete control

CC(C)N(C(=O)n1oc(=O)n(CC2(C)COC2)c1=O)c1ccccc1 [Compound 420]
6: Plant response rating, Blackgrass (blackgrass; [1]) | Blackgrass plant response rating (blackgrass; [2]) | B. signalgrass plant response rating (surinam grass; [12]) | Velvetleaf plant response rating (velvetleaf; [5])
0: Plant response rating, Nutsedge (purple nutsedge; [1]) | Nutsedge plant response rating (purple nutsedge; [2]) | Plant response rating, Nutsedge (purple nutsedge; [3]) | Plant response rating, Nutsedge (purple nutsedge; [4]) | Nutsedge plant response rating (purple nutsedge; [5]) | Plant response rating, Barnyardgrass (bamyardgrass; [7]) | Barnyardgrass plant response rating (bamyardgrass; [8]) | Barnyardgrass plant response rating (bamyardgrass; [9]) | Plant response rating, Barnyardgrass (bamyardgrass; [10]) | Plant response rating, Redroot pigweed (pigweed; [1]) | Redroot pigweed plant response rating (pigweed; [2]) | Plant response rating, Redroot pigweed (pigweed; [3]) | Plant response rating, Ducksalad (duck salad; [7]) | Ducksalad plant response rating (duck salad; [8]) | Ducksalad plant response rating (duck salad; [9]) | Plant response rating, Ducksalad (duck salad; [10]) | Plant response rating, Sugarbeets (sugar beet; [1]) | Sugarbeets plant response rating (sugar beet; [2]) | Plant response rating, Sugarbeets (sugar beet; [3]) | Plant response rating, Sugarbeets (sugar beet; [4]) | Blackgrass plant response rating (blackgrass; [13]) | Plant response rating, Wheat (wheat; [3]) | Plant response rating, Wheat (wheat; [4]) | B. signalgrass plant response rating (surinam grass; [13]) | Plant response rating, Cocklebur (cocklebur; [11]) | Plant response rating, Cocklebur (cocklebur; [1]) | Cocklebur plant response rating (cocklebur; [2]) | Plant response rating, Cocklebur (cocklebur; [3]) | Plant response rating, Cocklebur (cocklebur; [4]) | Cocklebur plant response rating (cocklebur; [5]) | Cocklebur plant response rating (cocklebur; [6]) | Cocklebur plant response rating (cocklebur; [13]) | Plant response rating, Bedstraw (bedstraw; Rate 125 g/ha) | Bedstraw plant response rating (bedstraw; Rate 62 g/ha) | Plant response rating, Morningglory (morningglory; [3]) | Plant response rating, Morningglory (morningglory; [4]) | Plant response rating, Wild oats (wild oat; [3]) | Rice plant response rating (rice; Postemergence section (flood test species), Rate 500 g/ha, scale of 0 to 10 where 0 is no effect and 10 is complete control) | Plant response rating, Rice (rice; flood test species, listed under Postemergence, Rate 250 g/ha, scale 0 to 10, 0 is no effect, 10 is complete control) | Plant response rating, Velvetleaf (velvetleaf; [1]) | Velvetleaf plant response rating (velvetleaf; [2]) | Plant response rating, Velvetleaf (velvetleaf; [3])
3: Sugarbeets plant response rating (sugar beet; [6]) | Plant response rating, Bedstraw (bedstraw; Rate 250 g/ha)
2: Plant response rating, Redroot pigweed (pigweed; [4]) | Redroot pigweed plant response rating (pigweed; [5]) | Sugarbeets plant response rating (sugar beet; [5]) | Plant response rating, Blackgrass (blackgrass; [11]) | Wheat plant response rating (wheat; [5]) | Plant response rating, B. signalgrass (surinam grass; [11]) | Plant response rating, B. signalgrass (surinam grass; [3]) | Plant response rating, B. signalgrass (surinam grass; [4]) | Plant response rating, Crabgrass (crabgrass; [11]) | Crabgrass plant response rating (crabgrass; [13]) | Morningglory plant response rating (morningglory; [5]) | Wild oats plant response rating (wild oat; [2]) | Plant response rating, Wild oats (wild oat; [4]) | Wild oats plant response rating (wild oat; [5]) | Plant response rating, Velvetleaf (velvetleaf; [4])
7: Wheat plant response rating (wheat; [6]) | Giant foxtail plant response rating (giant foxtail; [13]) | B. signalgrass plant response rating (surinam grass; [2]) | Plant response rating, Crabgrass (crabgrass; [3]) | Velvetleaf plant response rating (velvetleaf; [6])
10: Nutsedge plant response rating (purple nutsedge; [6]) | Blackgrass plant response rating (blackgrass; [6]) | Giant foxtail plant response rating (giant foxtail; [5]) | Giant foxtail plant response rating (giant foxtail; [6]) | Crabgrass plant response rating (crabgrass; [6]) | Morningglory plant response rating (morningglory; [2])
4: Plant response rating, Blackgrass (blackgrass; [3]) | Plant response rating, Morningglory (morningglory; [1])
8: Plant response rating, Blackgrass (blackgrass; [4]) | Blackgrass plant response rating (blackgrass; [12]) | Plant response rating, Giant foxtail (giant foxtail; [11]) | Plant response rating, Giant foxtail (giant foxtail; [1]) | B. signalgrass plant response rating (surinam grass; Preemergence, Rate 500 g/ha, scale of 0 to 10 where 0 is no effect and 10 is complete control) | Plant response rating, Crabgrass (crabgrass; [1]) | Crabgrass plant response rating (crabgrass; [2]) | Morningglory plant response rating (morningglory; [6])
5: Redroot pigweed plant response rating (pigweed; [6]) | Wheat plant response rating (wheat; [2]) | Plant response rating, Giant foxtail (giant foxtail; [3]) | Plant response rating, B. signalgrass (surinam grass; [1]) | Bedstraw plant response rating (bedstraw; Rate 500 g/ha) | Wild oats plant response rating (wild oat; [6])
9: Giant foxtail plant response rating (giant foxtail; [2]) | Plant response rating, Giant foxtail (giant foxtail; [4]) | Plant response rating, Crabgrass (crabgrass; [4]) | Crabgrass plant response rating (crabgrass; [5])

From US6737383B1, “Herbicidal oxadiazolidines” (priority 1999, dated 2004)
